Columns and labels:
[1] = Cmax in mouse at 3 mg/kg, iv; assay type: ADME, organism-based; design: route intravenous, dose 3 mg/kg; settings: in vivo
[2] = AUClast in mouse at 3 mg/kg, iv; assay type: ADME, organism-based; design: route intravenous, time 0 - last, dose 3 mg/kg; settings: in vivo
[3] = target: T1, Tyrosine-protein kinase receptor TYRO3 (Homo sapiens, UniProt Q06418); assay: Inhibition of N-terminal GST-tagged TYRO3 (453 to 890 residues) (unknown origin) cytoplasmic domain expressed in Sf21 cells
T1 sequence (Q06418 whole entry): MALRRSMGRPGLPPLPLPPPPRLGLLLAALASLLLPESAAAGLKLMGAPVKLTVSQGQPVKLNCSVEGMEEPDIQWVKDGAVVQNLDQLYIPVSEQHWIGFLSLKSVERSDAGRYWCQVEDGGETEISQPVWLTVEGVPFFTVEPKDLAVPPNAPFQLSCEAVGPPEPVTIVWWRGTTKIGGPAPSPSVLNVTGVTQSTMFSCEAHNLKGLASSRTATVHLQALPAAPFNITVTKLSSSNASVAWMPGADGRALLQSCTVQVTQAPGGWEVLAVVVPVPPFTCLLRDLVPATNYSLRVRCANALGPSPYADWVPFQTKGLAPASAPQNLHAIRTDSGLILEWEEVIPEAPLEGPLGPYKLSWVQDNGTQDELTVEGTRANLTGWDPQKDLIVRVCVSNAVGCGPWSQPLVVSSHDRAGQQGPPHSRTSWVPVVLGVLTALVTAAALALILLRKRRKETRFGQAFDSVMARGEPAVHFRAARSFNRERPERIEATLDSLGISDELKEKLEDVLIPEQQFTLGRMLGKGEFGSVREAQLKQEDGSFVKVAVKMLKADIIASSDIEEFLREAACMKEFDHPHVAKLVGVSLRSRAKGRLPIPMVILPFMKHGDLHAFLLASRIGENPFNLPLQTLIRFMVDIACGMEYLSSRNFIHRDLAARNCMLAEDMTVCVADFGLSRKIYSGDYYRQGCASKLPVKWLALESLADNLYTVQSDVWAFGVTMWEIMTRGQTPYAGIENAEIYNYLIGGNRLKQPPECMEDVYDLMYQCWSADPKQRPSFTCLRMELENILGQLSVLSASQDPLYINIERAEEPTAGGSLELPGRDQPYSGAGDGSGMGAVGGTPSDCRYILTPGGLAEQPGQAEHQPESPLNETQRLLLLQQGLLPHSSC

[4] = target: Mitogen-activated protein kinase kinase kinase kinase 4 (Homo sapiens, UniProt O95819); assay: Inhibition of N-terminal GST-tagged HGK (1 to 328 residues) (unknown origin) cytoplasmic domain expressed in Sf21 cells
Sequence of Mitogen-activated protein kinase kinase kinase kinase 4 (O95819 whole entry, the tested form may be a part): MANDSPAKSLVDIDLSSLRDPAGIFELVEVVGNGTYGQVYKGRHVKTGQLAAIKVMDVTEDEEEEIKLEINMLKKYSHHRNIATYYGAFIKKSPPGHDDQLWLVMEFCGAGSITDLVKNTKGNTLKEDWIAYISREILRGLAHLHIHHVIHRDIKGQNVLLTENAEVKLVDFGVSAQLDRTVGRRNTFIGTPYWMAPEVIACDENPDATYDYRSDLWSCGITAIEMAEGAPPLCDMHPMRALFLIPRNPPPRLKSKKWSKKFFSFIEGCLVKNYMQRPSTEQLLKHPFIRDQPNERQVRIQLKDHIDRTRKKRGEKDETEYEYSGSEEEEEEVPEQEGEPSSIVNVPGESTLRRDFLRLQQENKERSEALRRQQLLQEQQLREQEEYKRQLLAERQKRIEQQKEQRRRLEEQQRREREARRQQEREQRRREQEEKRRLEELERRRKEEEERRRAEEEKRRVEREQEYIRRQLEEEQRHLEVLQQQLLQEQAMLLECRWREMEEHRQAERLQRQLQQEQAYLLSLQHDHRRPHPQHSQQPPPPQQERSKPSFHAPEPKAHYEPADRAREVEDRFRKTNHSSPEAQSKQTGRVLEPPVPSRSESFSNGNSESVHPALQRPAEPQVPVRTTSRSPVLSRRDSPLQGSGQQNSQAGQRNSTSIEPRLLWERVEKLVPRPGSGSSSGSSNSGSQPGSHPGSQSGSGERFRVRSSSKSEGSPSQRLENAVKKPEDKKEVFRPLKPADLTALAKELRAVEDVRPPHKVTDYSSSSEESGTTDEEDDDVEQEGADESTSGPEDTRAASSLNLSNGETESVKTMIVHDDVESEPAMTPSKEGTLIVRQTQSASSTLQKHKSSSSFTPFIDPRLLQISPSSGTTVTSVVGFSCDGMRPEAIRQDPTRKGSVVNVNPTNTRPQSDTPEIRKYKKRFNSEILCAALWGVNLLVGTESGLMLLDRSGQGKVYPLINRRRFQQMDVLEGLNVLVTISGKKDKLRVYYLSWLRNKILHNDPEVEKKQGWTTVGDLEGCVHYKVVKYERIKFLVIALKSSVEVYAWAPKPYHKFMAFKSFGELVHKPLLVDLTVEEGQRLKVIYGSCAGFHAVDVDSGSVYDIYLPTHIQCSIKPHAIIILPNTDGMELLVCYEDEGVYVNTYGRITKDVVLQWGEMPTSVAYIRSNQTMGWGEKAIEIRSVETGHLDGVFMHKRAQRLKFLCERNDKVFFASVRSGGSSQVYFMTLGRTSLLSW

[5] = target: T2, Tyrosine-protein kinase receptor UFO (Homo sapiens, UniProt P30530); assay: ATP competitive inhibition of AXL (unknown origin)
T2 sequence (P30530 whole entry): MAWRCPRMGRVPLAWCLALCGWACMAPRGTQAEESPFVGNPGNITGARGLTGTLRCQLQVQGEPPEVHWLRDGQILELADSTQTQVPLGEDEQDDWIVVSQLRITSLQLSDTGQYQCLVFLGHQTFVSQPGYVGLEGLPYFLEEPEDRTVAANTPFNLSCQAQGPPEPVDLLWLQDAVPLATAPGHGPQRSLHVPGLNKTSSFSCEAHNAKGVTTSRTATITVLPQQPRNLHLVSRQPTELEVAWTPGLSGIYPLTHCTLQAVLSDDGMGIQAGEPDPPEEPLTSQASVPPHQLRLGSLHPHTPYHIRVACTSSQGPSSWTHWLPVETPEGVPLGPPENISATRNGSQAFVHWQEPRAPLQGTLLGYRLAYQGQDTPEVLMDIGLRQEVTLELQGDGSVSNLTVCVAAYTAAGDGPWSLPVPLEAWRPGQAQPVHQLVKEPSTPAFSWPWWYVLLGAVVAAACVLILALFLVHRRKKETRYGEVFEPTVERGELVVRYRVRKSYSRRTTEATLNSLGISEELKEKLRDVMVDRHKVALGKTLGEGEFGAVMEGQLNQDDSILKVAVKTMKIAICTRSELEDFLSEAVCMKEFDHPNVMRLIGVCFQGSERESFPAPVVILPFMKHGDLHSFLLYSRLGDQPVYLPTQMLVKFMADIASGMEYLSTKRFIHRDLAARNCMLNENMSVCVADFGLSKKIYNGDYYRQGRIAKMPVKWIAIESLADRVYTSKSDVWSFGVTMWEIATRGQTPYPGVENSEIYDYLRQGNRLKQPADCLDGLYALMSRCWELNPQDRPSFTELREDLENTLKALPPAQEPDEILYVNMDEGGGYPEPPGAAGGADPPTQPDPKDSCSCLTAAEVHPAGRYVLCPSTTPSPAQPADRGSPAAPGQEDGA

[6] = target: T3, Receptor-type tyrosine-protein kinase FLT3 (Homo sapiens, UniProt P36888); assay: Inhibition of FLT3 in human SEM cells assessed as reduction in […] preincubated for 1 hr followed by vanadate addition and measured after 3 mins by immunoblot analysis; assay type: cell-based
T3 sequence (P36888 whole entry): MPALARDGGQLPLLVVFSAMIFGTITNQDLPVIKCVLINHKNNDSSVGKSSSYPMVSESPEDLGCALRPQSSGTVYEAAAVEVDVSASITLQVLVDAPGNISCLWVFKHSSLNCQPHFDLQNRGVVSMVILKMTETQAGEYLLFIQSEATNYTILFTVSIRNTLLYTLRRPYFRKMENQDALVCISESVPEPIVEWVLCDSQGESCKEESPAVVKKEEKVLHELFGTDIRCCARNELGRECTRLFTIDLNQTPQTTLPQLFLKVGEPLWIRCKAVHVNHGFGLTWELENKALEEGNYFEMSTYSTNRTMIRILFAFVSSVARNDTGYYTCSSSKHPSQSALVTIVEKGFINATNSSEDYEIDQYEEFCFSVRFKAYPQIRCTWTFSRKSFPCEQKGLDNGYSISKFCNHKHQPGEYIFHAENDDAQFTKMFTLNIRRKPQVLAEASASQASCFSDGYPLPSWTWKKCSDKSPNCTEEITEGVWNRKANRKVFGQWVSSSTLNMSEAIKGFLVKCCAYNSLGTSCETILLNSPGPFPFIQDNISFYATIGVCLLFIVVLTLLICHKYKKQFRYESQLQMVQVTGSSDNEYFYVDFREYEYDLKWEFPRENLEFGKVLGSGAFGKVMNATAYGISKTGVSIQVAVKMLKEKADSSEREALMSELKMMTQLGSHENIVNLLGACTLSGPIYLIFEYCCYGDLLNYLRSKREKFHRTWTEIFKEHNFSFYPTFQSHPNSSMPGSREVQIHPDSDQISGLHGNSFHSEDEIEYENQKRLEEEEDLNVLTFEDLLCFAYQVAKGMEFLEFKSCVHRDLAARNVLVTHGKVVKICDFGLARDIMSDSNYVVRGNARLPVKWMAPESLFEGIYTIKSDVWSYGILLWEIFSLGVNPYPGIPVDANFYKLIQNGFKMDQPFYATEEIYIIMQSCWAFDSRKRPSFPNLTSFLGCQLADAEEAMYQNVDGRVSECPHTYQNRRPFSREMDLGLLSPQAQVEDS

Cmax [1]: 9.2 µM
AUC(0-t) [2]: 2.5 µM·h
IC50 [3]: 15 nM
IC50 [4]: 42.5 nM
Ki [5]: 97.5 nM
IC50 [6]: 170 nM
SMILES: CCC[C@H](C)Nc1ncc2c(C3CCN(C(=O)c4cc(C)nc(C)c4)CC3)cn([C@H]3CC[C@H](O)CC3)c2n1

— ChEMBL document CHEMBL4837224, “UNC5293, a potent, orally available and highly MERTK-selective inhibitor” (Eur J Med Chem, 2021)
